ChEMBL document CHEMBL1201862, “PubChem BioAssay data set” (2004)
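Dose response: 5 concentrations. Exposure: 48 h. Format: 96-well plates. Endpoint: linear interpolation; highest concentration if not reached. GI50 marks 50% less growth.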 Activity calls are given as the source filed them. Rule as the data show it: active = GI50 up to about 1.1 µM and inactive = higher.

Columns and labels:
Test in all cases: inhibition of tumour cell growth, NCI panel, 48 h
[1] = system: HCC 2998
[2] = system: Malme-3M
[3] = system: MOLT-4
[4] = system: UACC-62
[5] = system: NCI/ADR-RES
[6] = system: K562
[7] = system: MDA-MB-231
[8] = system: RXF 393
[9] = system: SW-620
[10] = system: MDA-MB-435
[11] = system: SK-OV-3
[12] = system: HT-29
[13] = system: A549
[14] = system: 786-0
[15] = system: RPMI-8226
[16] = system: SF-539
[17] = system: EKVX
[18] = system: ACHN
[19] = system: BT-549
[20] = system: CAKI-1

Measured: GI50

O=c1c(C(c2ccc(OCc3ccccc3)cc2)c2c(O)oc3ccccc3c2=O)c(O)oc2ccccc12
inactive: [1] 35.1 µM | [2] 28.6 µM | [3] 37.3 µM | [4] 37.5 µM | [5] 34.2 µM | [6] 10 µM | [7] 27 µM | [8] > 100 µM | [9] 57.4 µM | [10] 41.9 µM | [11] 50.5 µM | [12] 33 µM | [13] 40.9 µM | [14] 38.2 µM | [15] 43.1 µM | [16] 39.6 µM | [17] 39 µM | [18] 23.4 µM | [19] 24.9 µM | [20] 27.2 µM
